# Laboratory results: patent publication US9187544B2, “Peptide modulators of angiogenesis and use thereof” (The Johns Hopkins University, priority 2007, dated 2015)
# System: NCI H82 lung carcinoma cell line tumor xenografts
# Assay: In vivo tumor xenograft model
# Conditions: female nude mice, 12 days, monotherapy
# Description: To characterize the functional effects of anti-angiogenic peptides in mouse models, tumor xenografts were generated in female nude mice using the NCI H82 lung carcinoma cell line. This cell line was chosen because its aggressiveness results in rapid tumor growth. Three peptides, a collagen derived, a CXC chemokine derived and a TSP1 containing protein derived peptide were administered once a day, intraperitoneally (i.p.), at doses 10 and 20 mg/kg/day, in a 200 microliter solution injection as individual agents and as a combination. The CXC protein GRO-α/CXCL1 derived peptide (human sequence: […] (SEQ ID NO: 2445); mouse sequence: […] (SEQ ID NO: 2441)), the TSP1 repeat-containing protein WISP-1 derived peptide (human sequence: GPWEPCSVTCSKGTRTRRR (SEQ ID NO: 2444); mouse sequence: GPWGPCSVTCSKGTQIRQR (SEQ ID NO: 2440)), and the type IV collagen alpha5 fibril derived peptide (human sequence: […] (SEQ ID NO: 2442) is the same as mouse sequence: […] (SEQ ID NO: 2443)). An equivalent volume of PBS was injected as control. The injections were repeated for 12 days.
# A population of 10^6 cells were washed twice in PBS and gently resuspended to generate a single cell suspension. The cells were mixed with Matrigel (BD Biosciences) in a final 60% cell solution. Subsequently, the cells were injected into the flank area of immunosuppressed nude mice in a total volume of 100 μl. Following growth incubation of 5 to 6 days, the tumor size volume was calculated by measurements of tumor dimensions with calipers. Tumor growth was monitored to an initial average size of 100 mm^3, which developed within 6 days after inoculation. Peptides were administered once a day, intraperitoneally (i.p.), in doses of 10 mg/kg and 20 mg/kg. In the case of testing a combination each peptide was injected in a two day cycle of a different peptide per day. Equivalent volume of PBS solution was injected as control. The injections were continued for up to […]. A total of six animals per group were used for the experiments per peptide per concentration.
Sequence,development of tumors (tumor volume) (10 mg/kg/day i.p. once a day),development of tumors (tumor volume) (20 mg/kg/day i.p. once a day)
LRRFSTMPFMFCNINNVCNF,suppressed the development of tumors,suppressed the development of tumors
NGRKACLNPASPIVKKIIEKMLNS [CXC protein GRO-α/CXCL1 derived peptide],suppressed the development of tumors,suppressed the development of tumors
GPWEPCSVTCSKGTRTRRR,suppressed the development of tumors,suppressed the development of tumors
